Measurements taken from patent publication US4206226A (priority 1978, dated 1980).
Values joined by “and” are separate entries in the source; they are usually repeats but may differ in a detail not shown here. Identical values can stand only once.

How the values were obtained:
[1] = tested on: adenocarcinoma of the stomach, pancreas, and large bowel; conditions: combined FU and radiation vs radiation therapy alone, patients; cited from earlier work
L1210 leukemia [2] = experiment: Combination chemotherapy of advanced L1210 leukemia, cure rate (greater than 60-day survival); format: in vivo, mice; conditions: at least 1000 mg/kg
Description: Compound Pt-307 was administered usually in a dosage regimen of 5-60 mg/kg of body weight. This was given as a single dose or on Days 1, 5, and 9 in the standard National Institutes of Health 10-day testing.
CY was utilized at an optimum 50 mg/kg of body weight (range 25-75 mg/kg ) preferably given at Day 3 in the 10-day testing. 5-FU was utilized at 75 mg/kg of body weight (range 50-100 mg/kg) at Day 3. HU was used in a high dosage of at least 1000 mg/kg of body weight (range 1000-1500 mg/kg). The 5-FU and the HU were utilized as ternary compositions only with cyclophosphamide and the platinum compound.
Hydroxyurea is utilized in combination therapy at a high dosage of at least 1000 mg/kg of body weight (range 1000-1500 mg/kg).

Lewis lung = experiment: Panel of mouse tumors: Lewis lung, survival time assay; format: in vivo; conditions: iv tumor, D1-9 ip
Description: (§1) *Survival time (mean or median) assay
(§2) Data are expressed as a percentage of the survival time in days or the
(§3) tumor weights in mg of the treated mice divided by the corresponding
(§4) values for the control mice. All testing was performed using both platinu
(§5) compounds in the same experiment. The criteria for activity are as
(§6) follows: confirmed activity (activity from two separate laboratories) of
(§7) % T/C of 150 or more for survival systems and 10% or less for tumor weigh
(§8) inhibition assays. Lower levels of activity such as a % T/C of 125 for
(§9) survival systems and 42% for tumor weight inhibition assays are considere
(§10) statistically significant.

P388 leukemia = experiment: In vivo activity against P388 leukemia; design: species or system murine; conditions: Days 1,5,9,13, NSC-119875 6.7 mg/kg, NSC-271674 20.0 mg/kg; for Survival (Days), P388: control 13.3 days
Text: (§11) Data are expressed as survival in days and as a percentage increase in […]

L1210 = experiment: Panel of mouse tumors: L1210, survival time assay; format: in vivo; conditions: ip tumor, D1-9 ip
Description: as §1, §2, §3, §4, §5, §6, §7, §8, §9, §10

P388/DDP leukemia = experiment: In vivo activity against P388/DDP leukemia with acquired resistance to NSC-119875; design: species or system murine; conditions: for % ILS, P388/DDP / Survival (Days), P388/DDP: Days 1,5,9,13, NSC-119875 6.7 mg/kg, NSC-271674 20.0 mg/kg; for Survival (Days), P388/DDP: control 11.0 days
Text: P388/DDP refers to a tumor line with acquired resistance to NSC119875.
as §11

Colon #38 = experiment: Panel of mouse tumors: Colon #38, tumor weight inhibition assay; format: in vivo; conditions: sc tumor, D2,9 ip
Description: (§12) **Tumor weight inhibition assay.
as §2, §3, §4, §5, §6, §7, §8, §9, §10

[3] = tested on: L1210/DDP (NSC119875) resistant cells; experiment: In vitro growth inhibition of L1210/DDP (NSC119875 resistant) cells; format: cell-based, murine; conditions: growth inhibition by 50 percent
Text: (§13) The ID50 refers to the concentration of test compound required to
(§14) inhibit the growth of either the L1210 or L1210/DDP (NSC119875) resistant

CD8Fl mammary = experiment: Panel of mouse tumors: CD8Fl mammary, tumor weight inhibition assay; format: in vivo; conditions: sc tumor, Q7DX5 ip
Description: as §12, §2, §3, §4, §5, §6, §7, §8, §9, §10

B16 melanoma = experiment: Panel of mouse tumors: B16 melanoma, survival time assay; format: in vivo; conditions: ip tumor, D1-9 ip
Description: as §1, §12, §2, §3, §4, §5, §6, §7, §8, §9, §10

L1210 cells = experiment: In vitro growth inhibition of L1210 cells; format: cell-based, murine; conditions: growth inhibition by 50 percent
Text: as §13, §14

[4] = Renal Toxicity Screening Protocol, toxicity compared to NSC-119875; format: in vivo; conditions: for Body Weight Loss / Clinical Chemistry - Blood Urea Nitrogen / Clinical Chemistry - Creatinine / Clinical Chemistry - Serum Glutamic Pyruvic Transaminase / Hematology - Hematocrit / Hematology - White Blood Cell / Histopathology - Gastrointestinal / Histopathology - Hematopoietic / Histopathology - Lymphatic / Histopathology - Renal: score relative to NSC119875; for TOTAL SCORE: sum of ten parameter scores
murine leukemia L1210 = experiment: Antileukemic activity in mice against murine leukemia L1210 (general statement); format: in vivo
Text: Some previous platinum chelate compounds show dosage limitation due to renal impairment but the free carboxyl of the present composition offers a possible route of oral […] and absorption by the stomach.

L1210 leukemia [5] = experiment: Second screener, L1210 leukemia, day 1, 5, 9 schedule; format: in vivo, mice; conditions: 6.25 mg/kg
Text: The compound was submitted to the Drug Development Branch of the National Cancer Institute and assigned NSC Number 271674. It was screened against the L1210 leukemia on a day 1, 5, 9 schedule and the following results were obtained:

Approximate LD50 = format: in vivo; conditions: mice
L1210 leukemia [6] = experiment: Delayed (Day 3) treatment of L1210 leukemia, compound singly and in combination regimen; format: in vivo, BDF1 mice; conditions: for >60 day survivors: Day 3
Description: The compound in 1% NaHCO3 solution was tested against the L1210 leukemia in BDF1 mice [10^6 cells given to mice on Day 0, treatment (ip) on Day 1 only] in laboratory and the following % increases in life span (%ILS) were noted:
The compound singly and in combination regimen
When treatment was delayed until Day 3, 5 mg/kg gave 51% ILS, 42% ILS and 39% ILS in three experiments.

L1210 leukemia [7] = experiment: L1210 leukemia in BDF1 mice, treatment (ip) on Day 1 only, % increase in life span; format: in vivo
Description: The compound in 1% NaHCO3 solution was tested against the L1210 leukemia in BDF1 mice [10^6 cells given to mice on Day 0, treatment (ip) on Day 1 only] in laboratory and the following % increases in life span (%ILS) were noted: […]

[8] = first line, optimal dose (mg/kg/inj): NSC-119875 2, NSC-271674 3.12
[9] = second line, optimal dose (mg/kg/inj): NSC-119875 2, NSC-271674 6.25
[10] = first line, optimal dose (mg/kg/inj): NSC-119875 2, NSC-271674 0.78
[11] = second line, optimal dose (mg/kg/inj): NSC-119875 2, NSC-271674 1.56
[12] = first line, optimal dose (mg/kg/inj): NSC-119875 8, NSC-271674 12.5
[13] = second line, optimal dose (mg/kg/inj): NSC-119875 16, NSC-271674 50
[14] = first line, optimal dose (mg/kg/inj): NSC-119875 8, NSC-271674 6.25
[15] = second line, optimal dose (mg/kg/inj): NSC-119875 8, NSC-271674 25
[16] = first line, optimal dose (mg/kg/inj): NSC-119875 2, NSC-271674 6.25
[17] = second line, optimal dose (mg/kg/inj): NSC-119875 1, NSC-271674 1.56

O=c1[nH]cc(F)c(=O)[nH]1 [5-fluorouracil]
mean survival times [1]: significantly increased

NC(=O)NO [Hydroxyurea, hydroxyurea]
effectiveness when used alone (L1210 leukemia [2]): only minimally effective

N.N.[Cl][Pt][Cl] [NSC-119875, Cis-dichlorodiamino platinum II]
% T/C (survival time) (Lewis lung; [8]): 135% | % T/C (survival time) (Lewis lung; [9]): 177% | % ILS, P388 (P388 leukemia): 145% | Survival (Days), P388 (P388 leukemia): 32.6 days | % T/C (survival time) (L1210; [10]): 151% | % T/C (survival time) (L1210; [11]): 182% | % ILS, P388/DDP (P388/DDP leukemia): 41% | Survival (Days), P388/DDP (P388/DDP leukemia): 15.5 days | % T/C (tumor weight) (Colon #38; [12]): 42% | % T/C (tumor weight) (Colon #38; [13]): 11% | ID50 L1210/DDP [3]: 2.50 µg/mL | % T/C (tumor weight) (CD8Fl mammary; [14]): 0% | % T/C (tumor weight) (CD8Fl mammary; [15]): 0% | % T/C (survival time) (B16 melanoma; [16]): 193% | % T/C (survival time) (B16 melanoma; [17]): 166% | ID50 L1210 (L1210 cells): 0.05 µg/mL

N.N.O=C([O-])C1(C(=O)[O-])CCC1.[Pt+2] [NSC-241240, diamine[1,1cyclobutanedicarboxylato (2)-0,0']platinum]
Body Weight Loss [4]: 1 | Clinical Chemistry - Blood Urea Nitrogen [4]: 1 | Clinical Chemistry - Creatinine [4]: 1 | Clinical Chemistry - Serum Glutamic Pyruvic Transaminase [4]: 3 | Hematology - Hematocrit [4]: 4 | Hematology - White Blood Cell [4]: 3 | Histopathology - Gastrointestinal [4]: 1 | Histopathology - Hematopoietic [4]: 5 | Histopathology - Lymphatic [4]: 1 | Histopathology - Renal [4]: 1 | TOTAL SCORE [4]: 21

NC1CCCCC1N.O=S(=O)([O-])[O-].[Pt+2] (centres unmarked) [NSC-250427, sulfato(1,2diaminocyclohexane)platinum (II)]
Body Weight Loss [4]: 2 | Clinical Chemistry - Blood Urea Nitrogen [4]: 1 | Clinical Chemistry - Creatinine [4]: 1 | Clinical Chemistry - Serum Glutamic Pyruvic Transaminase [4]: 5 | Hematology - Hematocrit [4]: 3 | Hematology - White Blood Cell [4]: 3 | Histopathology - Gastrointestinal [4]: 1 | Histopathology - Hematopoietic [4]: 4 | Histopathology - Lymphatic [4]: 2 | Histopathology - Renal [4]: 2 | TOTAL SCORE [4]: 24

CC(C)N.CC(C)N.[Cl-].[Cl-].[OH-].[OH-].[Pt] [NSC-256927, bisisopropylamine-cis-dichloro-trans-dihydroxy platinum (IV)]
Body Weight Loss [4]: 2 | Clinical Chemistry - Blood Urea Nitrogen [4]: 1 | Clinical Chemistry - Creatinine [4]: 1 | Clinical Chemistry - Serum Glutamic Pyruvic Transaminase [4]: 3 | Hematology - Hematocrit [4]: 4 | Hematology - White Blood Cell [4]: 3 | Histopathology - Gastrointestinal [4]: 1 | Histopathology - Hematopoietic [4]: 4 | Histopathology - Lymphatic [4]: 4 | Histopathology - Renal [4]: 2 | TOTAL SCORE [4]: 25

N[C@@H]1CCCC[C@H]1N.O=C([O-])c1ccc(C(=O)[O-])c(C(=O)[O-])c1.[H+].[Pt+2] [NSC-271674, 4-Carboxyphthalato(1,2-diaminocyclohexane)platinum(II)]
% T/C (survival time) (Lewis lung; [8]): 122% | % T/C (survival time) (Lewis lung; [9]): 127% | testing for renal toxicity ([4]; against NSC 119875): superior results | Body Weight Loss [4]: 3 | Clinical Chemistry - Blood Urea Nitrogen [4]: 1 | Clinical Chemistry - Creatinine [4]: 1 | Clinical Chemistry - Serum Glutamic Pyruvic Transaminase [4]: 3 | Hematology - Hematocrit [4]: 3 | Hematology - White Blood Cell [4]: 3 | Histopathology - Gastrointestinal [4]: 1 | Histopathology - Hematopoietic [4]: 5 | Histopathology - Lymphatic [4]: 1 | Histopathology - Renal [4]: 2 | TOTAL SCORE [4]: 23 | potentiation in a treatment with cyclophosphamide (murine leukemia L1210; CY 50 mg/kg): is potentiated | antileukemic activity (murine leukemia L1210; mice, L1210): has shown antileukemic activity | effective dosages (murine leukemia L1210; mice, L1210): 5-60 mg/kg of body weight | questionably toxic deaths (L1210 leukemia [5]): 2 | % ILS, P388 (P388 leukemia): 56% | Survival (Days), P388 (P388 leukemia): 20.7 days | % T/C (survival time) (L1210; [10]): 174% | % T/C (survival time) (L1210; [11]): 325% | % ILS, P388/DDP (P388/DDP leukemia): 201% | Survival (Days), P388/DDP (P388/DDP leukemia): 33.3 days | activity against strains of murine leukemia wherein NSC 119875 has exhausted its activity (P388/DDP leukemia; murine leukemia strains): appears to be active | % T/C (tumor weight) (Colon #38; [12]): 50% | % T/C (tumor weight) (Colon #38; [13]): 33% | approximate LD50 (Approximate LD50): ~75 mg/kg | % ILS (L1210 leukemia [6]; 5 mg/kg alone, Day 3 treatment, three experiments): 51% and 42% and 39% | >60 day survivors (L1210 leukemia [6]; 5 mg/kg with cyclophosphamide (50 mg/kg) and 5-fluorouracil (75 mg/kg)): 8 of 10 | >60 day survivors (L1210 leukemia [6]; 5 mg/kg with cyclophosphamide (50 mg/kg), two experiments): 3 of 10 and no >60 day survivors | ID50 L1210/DDP [3]: 0.23 µg/mL | % T/C (tumor weight) (CD8Fl mammary; [14]): 11% | % T/C (tumor weight) (CD8Fl mammary; [15]): 25% | % T/C (survival time) (B16 melanoma; [16]): 171% | % T/C (survival time) (B16 melanoma; [17]): 159% | ID50 L1210 (L1210 cells): 0.30 µg/mL | % increases in life span (% ILS) (L1210 leukemia [7]; 5 mg/kg ip): 70% | % increases in life span (% ILS) (L1210 leukemia [7]; 10 mg/kg ip): 118% | % increases in life span (% ILS) (L1210 leukemia [7]; 20 mg/kg ip): 119% | % increases in life span (% ILS) (L1210 leukemia [7]; 25 mg/kg ip): 139% | % increases in life span (% ILS) (L1210 leukemia [7]; 40 mg/kg ip): 232% | % increases in life span (% ILS) (L1210 leukemia [7]; 50 mg/kg ip): 288% | % increases in life span (% ILS) (L1210 leukemia [7]; 60 mg/kg ip): 174%
